# Assay results: patent publication US9650340B2, “5-fluoro-N-(pyridin-2-yl)pyridin-2-amine derivatives containing a sulfoximine group” (BAYER PHARMA AKTIENGESELLSCHAFT, priority 2012, dated 2017)
# Read-outs that look alike come from different tables or passages of the source.
# How the values were obtained:
# CDK2/CycE = biological target: T1, CDK2/CycE (Homo sapiens, UniProt P24941); assay: CDK2/CycE high ATP kinase assay (TR-FRET, 2 mM ATP); assay type: biochemical; conditions: Method 2b
# T1 construct: GST; purchased ProQinase GmbH (Freiburg, Germany); host or cells: insect cells (Sf9)
# Description: 2b. CDK2/CycE High ATP Kinase Assay:
# CDK2/CycE-inhibitory activity of compounds of the present invention at 2 mM adenosine-tri-phosphate (ATP) was quantified employing the CDK2/CycE TR-FRET (TR-FRET=Time Resolved Fluorescence Energy Transfer) assay as described in the following paragraphs.
# Recombinant fusion proteins of GST and human CDK2 and of GST and human CycE, expressed in insect cells (Sf9) and purified by Glutathion-Sepharose affinity chromatography, were purchase from ProQinase GmbH (Freiburg, Germany). As substrate for the kinase reaction biotinylated peptide biotin-Ttds-[…] (C-terminus in amid form) was used which can be purchased e.g. form the company JERINI peptide technologies (Berlin, Germany).
# For the assay 50 nl of a 100 fold concentrated solution of the test compound in DMSO was pipetted into a black low volume 384 well microtiter plate (Greiner Bio-One, Frickenhausen, Germany), 2 μl of a solution of CDK2/CycE in aqueous assay buffer [50 mM Tris/HCl pH 8.0, 10 mM MgCl2, 1.0 mM dithiothreitol, 0.1 mM sodium ortho-vanadate, 0.01% (v/v) Nonidet-P40 (Sigma)] were added and the mixture was incubated for 15 min at 22° C. to allow pre-binding of the test compounds to the enzyme before the start of the kinase reaction. Then the kinase reaction was started by the addition of 3 μl of a solution ATP (3.33 mM=>final conc. in the 5 μl assay volume is 2 mM) and substrate (1.25 μM=>final conc. in the 5 μl assay volume is 0.75 μM) in assay buffer and the resulting mixture was incubated for a reaction time of 25 min at 22° C. The concentration of CDK2/CycE was adjusted depending of the activity of the enzyme lot and was chosen appropriate to have the assay in the linear range, typical concentrations were in the range of 15 ng/ml. The reaction was stopped by the addition of 5 μl of a solution of TR-FRET detection reagents (0.2 μM streptavidine-XL665 [Cisbio Bioassays, Codolet, France] and 1 nM anti-RB(pSer807/pSer811)-antibody from BD Pharmingen [#558389] and 1.2 nM LANCE EU-W1024 labeled anti-mouse IgG antibody [Perkin-Elmer, product no. AD0077, as an alternative a Terbium-cryptate-labeled anti-mouse IgG antibody from Cisbio Bioassays can be used]) in an aqueous EDTA-solution (100 mM EDTA, 0.2% (w/v) bovine serum albumin in 100 mM HEPES/NaOH pH 7.0).
# The resulting mixture was incubated 1 h at 22° C. to allow the formation of complex between the phosphorylated biotinylated peptide and the detection reagents. Subsequently the amount of phosphorylated substrate was evaluated by measurement of the resonance energy transfer from the Eu-chelate to the streptavidine-XL. Therefore, the fluorescence emissions at 620 nm and 665 nm after excitation at 350 nm were measured in a TR-FRET reader, e.g. a Rubystar (BMG Labtechnologies, Offenburg, Germany) or a Viewlux (Perkin-Elmer). The ratio of the emissions at 665 nm and at 622 nm was taken as the measure for the amount of phosphorylated substrate.
# [1] = tested on: DU 145, hormone-independent human prostate carcinoma cells; assay: Proliferation assay, DU145 (crystal violet); assay type: cell-based; conditions: DU145, 4 days, read-out: Inhibition of DU145 cell proliferation IC50
# Description: Cultivated tumour cells (HeLa, human cervical tumour cells, ATCC CCL-2; NCI-H460, human non-small cell lung carcinoma cells, ATCC HTB-177; A2780, human ovarian carcinoma cells, ECACC #93112519; DU 145, hormone-independent human prostate carcinoma cells, ATCC HTB-81; HeLa-MaTu-ADR, multidrug-resistant human cervical carcinoma cells, EPO-GmbH Berlin; Caco-2, human colorectal carcinoma cells, ATCC HTB-37; B16F10, mouse melanoma cells, ATCC CRL-6475) were plated at a density of 5,000 cells/well (DU145, HeLa-MaTu-ADR), 3,000 cells/well (NCI-H460, HeLa), 2,500 cells/well (A2780), 1,500 cells/well (Caco-2), or 1,000 cells/well (B16F10) in a 96-well multititer plate in 200 μL of their respective growth medium supplemented 10% fetal calf serum. After 24 hours, the cells of one plate (zero-point plate) were stained with crystal violet (see below), while the medium of the other plates was replaced by fresh culture medium (200 μl), to which the test substances were added in various concentrations (0 μM, as well as in the range of 0.001-10 μM; the final concentration of the solvent dimethyl sulfoxide was 0.5%). The cells were incubated for 4 days in the presence of test substances. Cell proliferation was determined by staining the cells with crystal violet: the cells were fixed by adding 20 μl/measuring point of an 11% glutaric aldehyde solution for 15 minutes at room temperature. After three washing cycles of the fixed cells with water, the plates were dried at room temperature. The cells were stained by adding 100 μl/measuring point of a 0.1% crystal violet solution (pH 3.0). After three washing cycles of the stained cells with water, the plates were dried at room temperature. The dye was dissolved by adding 100 μl/measuring point of a 10% acetic acid solution. The extinction was determined by photometry at a wavelength of 595 nm. The change of cell number, in percent, was calculated by normalization of the measured values to the extinction values of the zero-point plate (=0%) and the extinction of the untreated (0 μm) cells (=100%). The IC50 values (inhibitory concentration at 50% of maximal effect) were determined by means of a 4 parameter fit. Non-adherent MOLM-13 human acute myeloid leukemia cells (DSMZ ACC 554) were seeded at a density of 5,000 cells/well in a 96-well multititer plate in 100 μL of growth medium supplemented 10% fetal calf serum. After 24 hours, cell viability of one plate (zero-point plate) was determined with the Cell Titre-Glo Luminescent Cell Viability Assay (Promega), while 50 μL of test compound containing medium was added to the wells of the other plates (final concentrations in the range of 0.001-10 μM and DMSO controls; the final concentration of the solvent dimethyl sulfoxide was 0.5%). Cell viability was assessed after 72-hour exposure with the Cell Titre-Glo Luminescent Cell Viability Assay (Promega).
IC50 (CDK2/CycE),"IC50 ([1]; Homo sapiens, DU-145, 96 h)",IC50 [1],SMILES
3690 nM,110 nM,,"COc1cc(F)ccc1-c1cc(Nc2cc(CS(C)(=O)=NC(C)=O)ccn2)ncc1F (racemic) [Example 13, (rac)-N-{[(2-{[5-Fluoro-4-(4-fluoro-2-methoxyphenyl)pyridin-2-yl]amino}pyridin-4-yl)methyl](methyl)oxido-λ^6-sulfanylidene}acetamide]"
123 nM,31 nM,,"CCOC(=O)N=S(C)(=O)Cc1cc(Nc2cc(-c3ccc(F)cc3OC)c(F)cn2)nc(OC)c1 (racemic) [Example 15, (rac)-ethyl{[(2-{[5-fluoro-4-(4-fluoro-2-methoxyphenyl)pyridin-2-yl]amino}-6-methoxypyridin-4-yl)methyl](methyl)oxido-λ^6-sulfanylidene}carbamate]"
886 nM,48 nM,,"COc1cc(F)ccc1-c1cc(Nc2cc(CS(C)(=N)=O)cc(F)n2)ncc1F (racemic) [Example 17, (rac)-5-Fluoro-4-(4-fluoro-2-methoxyphenyl)-N-{6-fluoro-4-[(S-methylsulfonimidoyl)methyl]pyridin-2-yl}pyridin-2-amine]"
≥ 20000 nM,110 nM,,"CCOc1cc(F)ccc1-c1cc(Nc2cc(CS(C)(=O)=NC(=O)C(F)(F)F)cc(F)n2)ncc1F (racemic) [Example 27, (rac)-N-{[(2-{[4-(2-Ethoxy-4-fluoro-phenyl)-5-fluoropyridin-2-yl]amino}-6-fluoropyridin-4-yl)methyl]-(methyl)oxido-λ^6-sulfanylidene}-2,2,2-trifluoroacetamide]"
1420 nM,34 nM,,"COc1cc(F)ccc1-c1cc(Nc2cc(CS(C)(=O)=NC#N)ccn2)ncc1F (single isomer, unassigned) [Example 10, {[(2-{[5-Fluoro-4-(4-fluoro-2-methoxyphenyl)pyridin-2-yl]amino}pyridin-4-yl)methyl](methyl)oxido-λ^6-sulfanylidene}cyanamide]"
233 nM,32 nM,,"COc1cc(F)ccc1-c1cc(Nc2cc(CS(C)(=N)=O)cc(C(F)(F)F)n2)ncc1F (single isomer, unassigned; (+)) [Example 22, (+)-5-Fluoro-4-(4-fluoro-2-methoxyphenyl)-N-{4-[(S-methylsulfonimidoyl)methyl]-6-(trifluoromethyl)pyridin-2-yl}pyridin-2-amine]"

# Further lines, the compound ahead of its results:
SMILES,IC50 (CDK2/CycE),"IC50 ([1]; Homo sapiens, DU-145, 96 h)",IC50 [1]
"COc1cc(F)ccc1-c1cc(Nc2cc(CS(C)(=N)=O)cc(C(F)(F)F)n2)ncc1F (racemic) [Example 21, (rac)-5-Fluoro-4-(4-fluoro-2-methoxyphenyl)-N-{4-[(S-methylsulfonimidoyl)methyl]-6-(trifluoromethyl)pyridin-2-yl}pyridin-2-amine]",133 nM,30 nM,
"CCOc1cc(F)ccc1-c1cc(Nc2cc(CS(C)(=N)=O)cc(F)n2)ncc1F (racemic) [Example 26, (rac)-4-(2-Ethoxy-4-fluorophenyl)-5-fluoro-N-{6-fluoro-4-[(S-methylsulfonimidoyl)methyl]pyridin-2-yl}pyridin-2-amine]",1200 nM,110 nM,
"CCS(=N)(=O)Cc1ccnc(Nc2cc(-c3ccc(F)cc3OC)c(F)cn2)c1 (racemic) [Example 30, (rac)-N-{4-[(S-Ethylsulfonimidoyl)-methyl]pyridin-2-yl}-5-fluoro-4-(4-fluoro-2-methoxyphenyl)pyridin-2-amine]",300 nM,82 nM,
"COc1cc(F)ccc1-c1cc(Nc2cc(CS(C)(=N)=O)ccn2)ncc1F (single isomer, unassigned; (+)) [Example 2, (+)-5-Fluoro-4-(4-fluoro-2-methoxyphenyl)-N-{4-[(S-methylsulfonimidoyl)methyl]pyridin-2-yl}pyridin-2-amine]",2920 nM,,33 nM
"COc1cc(F)ccc1-c1cc(Nc2cc(CS(C)(=N)=O)cc(F)n2)ncc1F (single isomer, unassigned; (+)) [Example 19, (+)-5-Fluoro-4-(4-fluoro-2-methoxyphenyl)-N-{6-fluoro-4-[(S-methylsulfonimidoyl)methyl]pyridin-2-yl}pyridin-2-amine]",1370 nM,58 nM,
